What all share (format): cell-based
One assay has as its system TE-14. Put plainly: In vitro human tumor cell line cytotoxicity assay. As to conditions: read-out: RelIC50.
In the next assay the test system is P30/OHK. Briefly: In vitro human tumor cell line cytotoxicity assay. As to conditions: read-out: RelIC50.
The subject of a further assay is HL-60 Clone. Put plainly: In vitro human tumor cell line cytotoxicity assay. As to conditions: read-out: RelIC50.
A further assay concerns TE-6. Put plainly: In vitro human tumor cell line cytotoxicity assay. As to conditions: read-out: RelIC50.
In a further assay the test system is H460 cells. Put plainly: In vitro proliferation assay, H460. As to conditions: Homo sapiens, NCI-H460; 2 hrs exposure, wash, additional 70hrs, AlamarBlue; read-out: IC 50 in proliferation assay in H460 cells. The method, then:
In vitro proliferation data on the H460 […] human tumor cell line is reported above in the compound table. IC50 values are reported in micromolar and result from exposure of compound at various concentrations for 2 hrs followed by a wash step and addition of fresh media followed by growth and cell viability staining and comparison to a media only treated control.
Specifically, exponentially growing cells were seeded at a density of 4 x 10^3 cells per well in a 96 well plate and incubated at 37°C in 5% CO2, 95% air and 100% relative humidity for 24 hours prior to addition of test compounds. Compounds were solubilized in 100% DMSO at 200 times the desired final test concentration. At the time of drug addition, compounds were further diluted to 4 times the desired final concentration with complete medium. Aliquots of 50 µl of compound at specified concentrations were added to microtiter wells already containing 150 µl of medium, resulting in the final drug concentration reported. After drug addition, the plates were incubated for an additional 2 hours at 37°C, 5% CO2, 95% air, and 100% relative humidity, then the drug was washed off and fresh medium was added and the plates were incubated for addition 70hrs at 37 °C, 5% CO2, 95% air and 100% relative humidity. At the end of this incubation, the viable cells were quantified using the AlamarBlue assay. The drug concentration resulting in growth inhibition of 50% (IC50) was calculated using Prism software (Irvine, CA), and the results were listed in the table.
(Alamar Blue is a resazurin reagent that responds to reducing activity.)

Another assay deals with TE-9. Briefly: In vitro human tumor cell line cytotoxicity assay. As to conditions: read-out: RelIC50.
The next assay deals with K-562. Briefly: In vitro human tumor cell line cytotoxicity assay. As to conditions: K562, read-out: RelIC50.
Another assay deals with KYSE 70. Put plainly: In vitro human tumor cell line cytotoxicity assay. As to conditions: read-out: RelIC50.

Turning to `C[C@H](OP(=O)(N1CC1)N1CC1)c1ccc([N+](=O)[O-])c(Oc2cccc(C(=O)N(C)C)c2)c1` (single isomer, unassigned) [TH3424], the IC50 in the assay with TE-14 was 4.7 nM; in the assay with P30/OHK it was above 1000 nM; in the assay on HL-60 Clone, 52.6 nM; with TE-6, 21 nM; in the assay with H460 cells, 4 nM; in the assay on TE-9, 11 nM. Also, the IC50 was above 1000 nM in the assay with K-562 and 33 nM with KYSE 70.

The values are drawn from patent publication EP3390415B1, “(R)- AND (S)-1-(3-(3-N,N-DIMETHYLAMINOCARBONYL)PHENOXYL-4-NITROPHENYL)-1-ETHYL-N,N'-BIS (ETHYLENE)PHOSPHORAMIDATE, COMPOSITIONS AND METHODS FOR THEIR USE AND PREPARATION” (OBI PHARMA, INC., priority 2015, dated 2017).
